≈ marks a conversion by molar mass, not a printed value. Like-named read-outs stand apart in the source and are kept apart here.
What was measured:
S. aureus GC 6335 = assay: MIC, broth microdilution; conditions: Staphylococcus aureus, GC6335, S. aureus GC 6335
E. coli GC 4559 = assay: MIC, broth microdilution; conditions: Escherichia coli, GC4559, E. coli GC 4559
S. aureus GC 1079 = assay: MIC, broth microdilution; conditions: Staphylococcus aureus, GC1079, S. aureus GC 1079
Staph. aureus Smith = assay: In vivo activity (oral, iv; ED50) against Staph. aureus Smith in mice
Description: Representative examples of compounds of Formula I were tested for the oral efficacy using S. aureus Smith in mice.

E. coli GC 2234 = assay: MIC, broth microdilution; conditions: Escherichia coli, GC2234, E. coli GC 2234
E. coli GC 2236 = assay: MIC, broth microdilution; conditions: Escherichia coli, GC2236, E. coli GC 2236
c. albicans GC 3066 = assay: MIC, broth microdilution
S. aureus GC 2216 = assay: MIC, broth microdilution; conditions: Staphylococcus aureus, GC2216, S. aureus GC 2216
E. faecalis GC 2242 = assay: MIC, broth microdilution; conditions: Enterococcus faecalis, GC2242, E. faecalis GC 2242
S. pneumoniae+ GC 4465 = assay: MIC, broth microdilution; conditions: Streptococcus pneumoniae, S. pneumoniae+ GC 4465
E. coli GC 2233 = assay: MIC, broth microdilution; conditions: Escherichia coli, GC2233, E. coli GC 2233
E. coli GC 2271 = assay: MIC, broth microdilution; conditions: Escherichia coli, GC2271, E. coli GC 2271
E. faecium GC 4556 = assay: MIC, broth microdilution; conditions: Enterococcus faecium, GC4556, E. faecium GC 4556
S. epidermidis GC 4935 = assay: MIC, broth microdilution; conditions: Staphylococcus epidermidis, GC4935, S. epidermidis GC 4935
P. aeruginosa GC 2214 = assay: MIC, broth microdilution; conditions: Pseudomonas aeruginosa, GC2214, P. aeruginosa GC 2214
Description: Antimicrobial susceptibility testing. The in vitro activities of the antibiotics are determined by the broth microdilution method as recommended by the National Committee for Clinical Laboratory Standards (NCCLS) (1). Mueller-Hinton II broth (MHBII)(BBL Cockeysville, Md.) is the medium employed in the testing procedures. Microtiter plates containing serial dilutions of each antimicrobial agent are inoculated with each organism to yield the appropriate density (10^5 CFU/ml) in a 100 μl final volume. The plates are incubated for 18-22 hours at 35° C. in ambient air.
Representative compounds were first incubated in mouse serum for an hour prior to the in vitro testing against a panel of selected gram-positive and gram-negative bacteria strains. All compounds were also pre-incubated in water for an hour prior to testing as control.

E. coli GC 1073 = assay: MIC, broth microdilution; conditions: Escherichia coli, GC1073, E. coli GC 1073
E. coli GC 2235 = assay: MIC, broth microdilution; conditions: Escherichia coli, GC2235, E. coli GC 2235
E. coli GC 2270 = assay: MIC, broth microdilution; conditions: Escherichia coli, GC2270, E. coli GC 2270
S. aureus GC 1131 = assay: MIC, broth microdilution; conditions: Staphylococcus aureus, GC1131, S. aureus GC 1131
S. pyogenes GC 4563 = assay: MIC, broth microdilution; conditions: Streptococcus pyogenes, GC4563, S. pyogenes GC 4563

Question: With `CCCCN(CC(=O)Nc1cc(N(C)C)c2c(c1O)C(=O)C1=C(O)[C@]3(O)C(=O)C(C(N)=O)=C(O)[C@@H](N(C)C)C3CC1C2)C(=O)OCOC(=O)c1ccc(C)cc1` (stereo partly drawn) [Example 3, ({[(2-{[(7S,10aS)-9-(aminocarbonyl)-4,7-bis(dimethylamino)-1,8,10a,11-tetrahydroxy-10,12-dioxo-5,5a,6,6a,7,10,10a,12-octahydrotetracen-2-yl]amino}-2-oxoethyl)(butyl)amino]carbonyl}oxy)methyl 4-methylbenzoate] as the compound, how does the MIC (S. aureus GC 6335; Mouse Serum pre-incubation) read?
Answer: 2 µg/mL (≈ 2.57 µM)

Question: And the MIC (S. aureus GC 6335; Water pre-incubation)?
Answer: 8 µg/mL (≈ 10.3 µM)

Question: And the MIC (E. coli GC 4559; Mouse Serum pre-incubation)?
Answer: 2 µg/mL (≈ 2.57 µM)

Question: What about the MIC (E. coli GC 4559; Water pre-incubation) of the same compound?
Answer: > 64 µg/mL

Question: And the MIC (S. aureus GC 1079; Mouse Serum pre-incubation)?
Answer: 2 µg/mL (≈ 2.57 µM)

Question: What about the MIC (S. aureus GC 1079; Water pre-incubation) of the same compound?
Answer: 32 µg/mL (≈ 41.1 µM)

Question: And the ED50 (Staph. aureus Smith; Staphylococcus aureus, in Mus musculus, po, read-out: ED50 Staph Smith SOD)?
Answer: 16.1 mg/kg

Question: And the ED50 (Staph. aureus Smith; iv, read-out: ED50 Staph Smith SIV)?
Answer: 0.59 mg/kg

Question: And the MIC (E. coli GC 2234; Mouse Serum pre-incubation)?
Answer: 1 µg/mL (≈ 1.29 µM)

Question: What about the MIC (E. coli GC 2234; Water pre-incubation) of the same compound?
Answer: > 64 µg/mL

Question: What about the MIC (E. coli GC 2236; Mouse Serum pre-incubation) of the same compound?
Answer: 1 µg/mL (≈ 1.29 µM)

Question: And the MIC (E. coli GC 2236; Water pre-incubation)?
Answer: > 64 µg/mL

Question: What about the MIC (c. albicans GC 3066; Candida albicans, GC3066) of the same compound?
Answer: > 64 µg/mL

Question: What about the MIC (c. albicans GC 3066; c. albicans GC 3066, Water pre-incubation) of the same compound?
Answer: >64 UG/ML

Question: And the MIC (S. aureus GC 2216; Mouse Serum pre-incubation)?
Answer: 1 µg/mL (≈ 1.29 µM)

Question: And the MIC (S. aureus GC 2216; Water pre-incubation)?
Answer: 4 µg/mL (≈ 5.14 µM)

Question: And the MIC (E. faecalis GC 2242; Mouse Serum pre-incubation)?
Answer: 2 µg/mL (≈ 2.57 µM)

Question: And the MIC (E. faecalis GC 2242; Water pre-incubation)?
Answer: 16 µg/mL (≈ 20.6 µM)

Question: And the MIC (S. pneumoniae+ GC 4465; Mouse Serum pre-incubation)?
Answer: 1 µg/mL (≈ 1.29 µM)

Question: What about the MIC (S. pneumoniae+ GC 4465; Water pre-incubation) of the same compound?
Answer: 2 µg/mL (≈ 2.57 µM)

Question: What about the MIC (E. coli GC 2233; Mouse Serum pre-incubation) of the same compound?
Answer: 1 µg/mL (≈ 1.29 µM)

Question: And the MIC (E. coli GC 2233; Water pre-incubation)?
Answer: > 64 µg/mL

Question: And the MIC (E. coli GC 2271; Mouse Serum pre-incubation)?
Answer: 1 µg/mL (≈ 1.29 µM)

Question: What about the MIC (E. coli GC 2271; Water pre-incubation) of the same compound?
Answer: > 64 µg/mL

Question: What about the MIC (E. faecium GC 4556; Mouse Serum pre-incubation) of the same compound?
Answer: 2 µg/mL (≈ 2.57 µM)

Question: And the MIC (E. faecium GC 4556; Water pre-incubation)?
Answer: 16 µg/mL (≈ 20.6 µM)

Question: And the MIC (S. epidermidis GC 4935; Mouse Serum pre-incubation)?
Answer: 4 µg/mL (≈ 5.14 µM)

Question: And the MIC (S. epidermidis GC 4935; Water pre-incubation)?
Answer: 8 µg/mL (≈ 10.3 µM)

Question: What about the MIC (P. aeruginosa GC 2214; Mouse Serum pre-incubation) of the same compound?
Answer: 32 µg/mL (≈ 41.1 µM)

Question: What about the MIC (P. aeruginosa GC 2214; Water pre-incubation) of the same compound?
Answer: > 64 µg/mL

Question: And the MIC (E. coli GC 1073; Mouse Serum pre-incubation)?
Answer: 2 µg/mL (≈ 2.57 µM)

Question: What about the MIC (E. coli GC 1073; Water pre-incubation) of the same compound?
Answer: > 64 µg/mL

Question: What about the MIC (E. coli GC 2235; Mouse Serum pre-incubation) of the same compound?
Answer: 1 µg/mL (≈ 1.29 µM)

Question: What about the MIC (E. coli GC 2235; Water pre-incubation) of the same compound?
Answer: > 64 µg/mL

Question: What about the MIC (E. coli GC 2270; Mouse Serum pre-incubation) of the same compound?
Answer: 1 µg/mL (≈ 1.29 µM)

Question: And the MIC (E. coli GC 2270; Water pre-incubation)?
Answer: > 64 µg/mL

Question: What about the MIC (S. aureus GC 1131; Mouse Serum pre-incubation) of the same compound?
Answer: 2 µg/mL (≈ 2.57 µM)

Question: And the MIC (S. aureus GC 1131; Water pre-incubation)?
Answer: 4 µg/mL (≈ 5.14 µM)

Question: And the MIC (S. pyogenes GC 4563; Mouse Serum pre-incubation)?
Answer: 0.12 µg/mL (≈ 0.154 µM)

Question: And the MIC (S. pyogenes GC 4563; Water pre-incubation)?
Answer: 0.25 µg/mL (≈ 0.321 µM)
